{"source": "patent US7029879B1", "about": "“Iodine uptake restoration in thyroid cancer” (University of Kentucky Research Foundation, priority 1999, dated 2006); for Methylation Status by Region P: key: mRNA expression (hNIS, TTF-1, Pax-8): +, positive; −, negative", "key": {"[1]": {"tested_on": "KAT-10 cells (papillary carcinoma)", "assay": "Iodide uptake assay (specific 125I uptake), KAT-10; note: key: mRNA expression (hNIS, TTF-1, Pax-8): +, positive; −, negative", "assay_type": "cell-based, human", "protocol": "(§1) Cell lines, for evaluation of iodide-uptake and hNIS expression, were grown in phenol-red-free RPMI 1640 with 5% fetal bovine serum (FBS), 100 nM sodium selenite and 0.1 nM bovine TSH (basal medium) (20). They were plated at a density of 3–5×10^4 cells/9.4 cm^2, in triplicate in basal medium, and grown for 2–3 days at 37° C. in 5% CO2. They were treated with dimethylsulfoxide (DMSO, 25 μM daily for 3 days), sodium butyrate (0.5 or 1.0 mM), phenylacetate (pH 7.0, 5 or 10 mM) or 5-azacytidine (0.5 or 1.0 μM, in 25 μM DMSO, daily for 3 days) until control cells were 80% confluent (3–4 days), then changed to fresh basal medium and grown for an additional 24 hrs.\nCell lines, treated with differentiation agents and control cultures, were washed with 2 mL of buffer containing: 10 mM HEPES ([…]), 5.5 mM glucose, 5.4 mM KCl, 1.3 mM CaCl2, 0.4 mM Na2HPO4, 0.44 mM KH2PO4, and either 137 mM NaCl (Buffer A) or 100 mM choline chloride (Buffer B). After a 60 min incubation in the same buffer supplemented with Na(^125I) (1.0 μCi/2 mL) and 1.0 μM NaI, cells were washed once with Buffer A, lysed with 0.1 M NaOH and gamma counted (5). A parallel set of dishes, similarly plated and treated, were used for normalization of uptake activity, using 3-(4,5-dimethylthiazol-2-yl)-2,5-diphenyltetrazolium bromide (MTT) assay (25) as an index of cell viability. Gamma counts of cells incubated in Buffer B were subtracted from counts of cells incubated in Buffer A, under corresponding conditions, to account for non-specific binding of radioiodide."}, "[2]": {"tested_on": "hNIS gene regions P (promoter), L (leader), C (coding)", "assay": "Methylation-specific PCR of hNIS gene regions in treated cell lines", "assay_type": "cell-based, human", "protocol": "as §1\nThis method utilizes PCR primer pairs to distinguish methylated from unmethylated DNA in bisulfite-modified target DNA, in which bisulfite converts unmethylated cytosines to uracil (23,24). Genomic DNAs, from normal and tumoral human thyroid tissues and cell lines, were isolated by standard techniques (21) and 1.0 μg aliquots were denatured by NaOH (10 min at 37° C.), then treated with 10 mM hydroquinone and 3.0 M sodium bisulfite (pH 5.0 under mineral oil for 16 hrs at 50° C.). Modified DNA was purified on a resin column (Qiagen) and further treated with 0.3 N NaOH for 5 min prior to ethanol precipitation. The PCR mixture contained 16.6 mM ammonium sulfate, 67 mM Tris-HCl (pH 8.8), 6.7 mM MgCl2, 10 mM β-mercaptoethanol, 1.25 mM dNTPs, 0.2 μL TaqStart antibody, 1 U AmpliTaq DNA polymerase, 10 pmoles each of sense and antisense methylation-specific primers, and […] of bisulphite-modified DNA target. Primers used for analysis of the hNIS promoter CpG island methylation were selected for cytosine-rich regions, containing CpG dinucleotides near the 3′ end of the primers, hNIS-MET-P (sense, 5′ to 3′, TTAGGTTTGGAGGCGGA GTCGC (SEQ ID NO. 7) and antisense, 5′ to 3′, ACCGACTATCTATCCCT CTCCCTAAACG) (SEQ ID NO. 8) for a 143 bp product from methylated DNA and hNIS-UNMET-P (sense, 5′ to 3′, […] GAGTTGT (SEQ ID NO. 9) and antisense, 5′ to 3′, […] CCTAAACA) (SEQ ID NO. 10) for a 151 bp product from unmethylated genomic DNA. Additional sets of primers were similarly designed to analyze further downstream elements. They were: hNIS-MET-L (sense, […] (SEQ ID NO. 11) and antisense, GACCT CCATAAAAACGAATACG) (SEQ ID NO. 12) for a 265 bp product, with hNIS-UNMET-L (sense, […] (SEQ ID NO. 13), and antisense, […]) (SEQ ID NO. 14), for a 275 bp product, hNIS-MET-C (sense, […] (SEQ ID NO. 15) and antisense, […]) (SEQ ID NO. 16) for a 242 bp product, and hNIS-UNMET-C (sense, […] (SEQ ID NO. 17), and antisense, […]) (SEQ ID NO. 18), for a 252 bp product. The amplification conditions were: Taq polymerase activation at 95° C. for 5 min, 40 cycles of: denaturation at 94° C. for 20 s, annealing at 60° C. for 30 s and polymerization at 72° C. for 30 s. MS-PCR products were resolved by agarose gel electrophoresis and visualized by ethidium bromide staining and UV transillumination."}, "[3]": {"settings": "low: AzaC 0.5 μM, NaB 0.5 mM, PhAc 5.0 mM"}, "[4]": {"settings": "NPA'87, high: AzaC 1.0 μM, NaB 1.0 mM"}, "[5]": {"settings": "KAT-5, high: AzaC 1.0 μM, PhAc 10 mM"}}, "data": [{"smiles": "CCCC(=O)[O-].[Na+]", "note": "[NaB, sodium butyrate]", "values": [{"measurement": "Specific ^125I Uptake", "setting": "[1]; high: NaB 1.0 mM, PhAc 10 mM", "value": "−"}, {"measurement": "Specific ^125I Uptake", "setting": "[1]; [3]", "value": "−"}, {"measurement": "Methylation Status by Region C", "setting": "[2]; KAT-10, high: NaB 1.0 mM", "value": "+"}, {"measurement": "Methylation Status by Region L", "setting": "[2]; KAT-10, high: NaB 1.0 mM", "value": "+"}, {"measurement": "Methylation Status by Region P", "setting": "[2]; KAT-10, high: NaB 1.0 mM", "value": "−"}, {"measurement": "Methylation Status by Region C", "setting": "[2]; [4]", "value": "+"}, {"measurement": "Methylation Status by Region L", "setting": "[2]; [4]", "value": "+"}, {"measurement": "Methylation Status by Region P", "setting": "[2]; [4]", "value": "−"}, {"measurement": "effect on baseline methylation patterns in all three regions", "setting": "[2]; NPA'87 and KAT-10", "value": "failed to demonstrate effects on altering baseline methylation patterns"}]}, {"smiles": "Nc1ncn([C@@H]2O[C@H](CO)[C@@H](O)[C@H]2O)c(=O)n1", "note": "[AzaC, 5-azacytidine]", "values": [{"measurement": "Specific ^125I Uptake", "setting": "[1]; [3]", "value": "−"}, {"measurement": "methylation at the L and C regions after treatment", "setting": "[2]; KAK-1, KAT-5, KAT-10 and NPA'87 (all four cell lines)", "value": "decreased methylation"}, {"measurement": "Methylation Status by Region C", "setting": "[2]; KAK-1, high: AzaC 1.0 μM", "value": "−"}, {"measurement": "Methylation Status by Region L", "setting": "[2]; KAK-1, high: AzaC 1.0 μM", "value": "−"}, {"measurement": "Methylation Status by Region P", "setting": "[2]; KAK-1, high: AzaC 1.0 μM", "value": "−"}, {"measurement": "Methylation Status by Region C", "setting": "[2]; KAK-1, low: AzaC 0.5 μM", "value": "−"}, {"measurement": "Methylation Status by Region L", "setting": "[2]; KAK-1, low: AzaC 0.5 μM", "value": "−"}, {"measurement": "Methylation Status by Region P", "setting": "[2]; KAK-1, low: AzaC 0.5 μM", "value": "−"}, {"measurement": "Methylation Status by Region C", "setting": "[2]; [5]", "value": "−"}, {"measurement": "Methylation Status by Region L", "setting": "[2]; [5]", "value": "−"}, {"measurement": "Methylation Status by Region P", "setting": "[2]; [5]", "value": "−"}, {"measurement": "susceptibility to demethylation effects in the C region", "setting": "[2]; KAT-5 and KAT-10 cells, C region compared with L region", "value": "less than that of the L region"}, {"measurement": "Methylation Status by Region C", "setting": "[2]; KAT-10, low: AzaC 0.5 μM", "value": "−"}, {"measurement": "Methylation Status by Region L", "setting": "[2]; KAT-10, low: AzaC 0.5 μM", "value": "−"}, {"measurement": "Methylation Status by Region P", "setting": "[2]; KAT-10, low: AzaC 0.5 μM", "value": "−"}, {"measurement": "effect on methylation status of the P region", "setting": "[2]; MRO87, WRO82 and KAT-7", "value": "did not affect the baseline demethylated status"}, {"measurement": "demethylation of region C in response to treatment", "setting": "[2]; MRO87, WRO82 and KAT-7, except minimal unmethylated product for WRO82", "value": "did not become demethylated"}, {"measurement": "Methylation Status by Region C", "setting": "[2]; [4]", "value": "−"}, {"measurement": "Methylation Status by Region L", "setting": "[2]; [4]", "value": "−"}, {"measurement": "Methylation Status by Region P", "setting": "[2]; [4]", "value": "−"}]}]}
